# Source: ChEMBL document CHEMBL4609973, “Hepatitis C - New drugs and treatment prospects” (Eur J Med Chem, 2019)
# Columns and labels:
# [1] = Half life in human; format: ADME
# [2] = Drug excretion in human feces assessed as daclatasvir level; format: ADME, tissue-based; conditions: faeces, read-out: Drug excretion
# [3] = Oral bioavailability in human; format: ADME, organism-based; conditions: in vivo
# [4] = Drug excretion in human feces assessed as dasabuvir level; format: ADME, tissue-based; conditions: faeces, read-out: Drug excretion
# [5] = Absolute bioavailability in human; format: ADME, organism-based; conditions: in vivo
# [6] = Drug excretion in human feces assessed as ombitasvir level; format: ADME, tissue-based; conditions: faeces, read-out: Drug excretion
# [7] = Half life in HIV infected human; format: ADME
# [8] = Oral bioavailability in human under fed condition; format: ADME, organism-based; conditions: in vivo
half-life [1],Structure (SMILES),further results
6 h,CC(C)(C)[C@@H]1NC(=O)O[C@@H]2CCC[C@H]2OC/C=C/C(F)(F)c2nc3ccccc3nc2O[C@@H]2C[C@@H](C(=O)N[C@]3(C(=O)NS(=O)(=O)C4(C)CC4)C[C@H]3C(F)F)N(C2)C1=O [GLECAPREVIR],
31 h,C=C[C@@H]1C[C@]1(NC(=O)[C@@H]1C[C@@H]2CN1C(=O)[C@H](C(C)(C)C)NC(=O)O[C@@H]1C[C@H]1CCCCCc1nc3ccc(OC)cc3nc1O2)C(=O)NS(=O)(=O)C1CC1 [GRAZOPREVIR ANHYDROUS],
5.5 h,Cc1cnc(C(=O)N[C@H]2CCCCC/C=C\[C@@H]3C[C@@]3(C(=O)NS(=O)(=O)C3CC3)NC(=O)[C@@H]3C[C@@H](Oc4nc5ccccc5c5ccccc45)CN3C2=O)cn1 [PARITAPREVIR],bioavailability [5]: 53%
10 to 13 h,COc1ccc2c(O[C@@H]3C[C@H]4C(=O)N[C@]5(C(=O)NS(=O)(=O)C6CC6)C[C@H]5/C=C\CCCCN(C)C(=O)[C@@H]4C3)cc(-c3nc(C(C)C)cs3)nc2c1C [SIMEPREVIR],half-life [7]: 41 h; bioavailability [8]: 62%

# Second part, the molecule before the results:
Structure (SMILES),half-life [1],further results
C[C@@]1(F)[C@H](O)[C@@H](CO)O[C@H]1n1ccc(=O)[nH]c1=O,27 h,
COC(=O)N[C@H](C(=O)N1CCC[C@H]1c1nc(-c2ccc(-c3ccc(-c4c[nH]c([C@@H]5CCCN5C(=O)[C@@H](NC(=O)OC)C(C)C)n4)cc3)cc2)c[nH]1)C(C)C [DACLATASVIR],12 to 15 h,dose excreted [2]: 53%; bioavailability [3]: 67%
COc1c(-c2ccc3cc(NS(C)(=O)=O)ccc3c2)cc(-n2ccc(=O)[nH]c2=O)cc1C(C)(C)C [DASABUVIR],5.5 to 6 h,dose excreted [4]: 26.2%; bioavailability [5]: 70%
COC(=O)N[C@H](C(=O)N1CCC[C@H]1c1nc(-c2ccc3c(c2)O[C@@H](c2ccccc2)n2c-3cc3cc(-c4c[nH]c([C@@H]5CCCN5C(=O)[C@@H](NC(=O)OC)C(C)C)n4)ccc32)c[nH]1)C(C)C [ELBASVIR],24 h,
COC(=O)N[C@H](C(=O)N1CC2(CC2)C[C@H]1c1ncc(-c2ccc3c(c2)C(F)(F)c2cc(-c4ccc5nc([C@@H]6[C@H]7CC[C@H](C7)N6C(=O)[C@@H](NC(=O)OC)C(C)C)[nH]c5c4)ccc2-3)[nH]1)C(C)C [LEDIPASVIR],47 h,bioavailability [3]: 76%
COC(=O)N[C@H](C(=O)N1CCC[C@H]1C(=O)Nc1ccc([C@@H]2CC[C@@H](c3ccc(NC(=O)[C@@H]4CCCN4C(=O)[C@@H](NC(=O)OC)C(C)C)cc3)N2c2ccc(C(C)(C)C)cc2)cc1)C(C)C [OMBITASVIR],21 to 25 h,dose excreted [6]: 90.2%; bioavailability [5]: 48%
COC(=O)N[C@H](C(=O)N1CCC[C@H]1c1nc2cc([C@H]3CC[C@H](c4cc5nc([C@@H]6CCCN6C(=O)[C@@H](NC(=O)OC)[C@@H](C)OC)[nH]c5cc4F)N3c3cc(F)c(N4CCC(c5ccc(F)cc5)CC4)c(F)c3)c(F)cc2[nH]1)[C@@H](C)OC [PIBRENTASVIR],23 to 29 h,
CC(C)OC(=O)[C@H](C)N[P@](=O)(OC[C@H]1O[C@@H](n2ccc(=O)[nH]c2=O)[C@](C)(F)[C@@H]1O)Oc1ccccc1 [SOFOSBUVIR],0.4 h,bioavailability [3]: 92%
COC[C@H]1C[C@@H](c2ncc(-c3ccc4c(c3)COc3cc5c(ccc6nc([C@@H]7CC[C@H](C)N7C(=O)[C@@H](NC(=O)OC)C(C)C)[nH]c65)cc3-4)[nH]2)N(C(=O)[C@H](NC(=O)OC)c2ccccc2)C1 [VELPATASVIR],15 h,
